Experimental data reported in patent US20170273922A1, “UREA AND BIS-UREA BASED COMPOUNDS AND ANALOGUES THEREOF USEFUL IN THE TREATMENT OF ANDROGEN RECEPTOR MEDIATED DISEASES OR DISORDERS” (THE ROYAL INSTITUTION FOR THE ADVACEMENT OF LEARNING/MCGILL …, priority 2014, published 2017).

Experiments:
Format in all cases: cell-based
[1] = molecular target: T1, T877A mutant of full-length AR (Homo sapiens, UniProt P10275, T878A); assay: AR T877A mutant PSA-luc reporter assay in PC3 cells; details: absence of DHT, 24 h
T1 sequence (P10275 1-920 T878A): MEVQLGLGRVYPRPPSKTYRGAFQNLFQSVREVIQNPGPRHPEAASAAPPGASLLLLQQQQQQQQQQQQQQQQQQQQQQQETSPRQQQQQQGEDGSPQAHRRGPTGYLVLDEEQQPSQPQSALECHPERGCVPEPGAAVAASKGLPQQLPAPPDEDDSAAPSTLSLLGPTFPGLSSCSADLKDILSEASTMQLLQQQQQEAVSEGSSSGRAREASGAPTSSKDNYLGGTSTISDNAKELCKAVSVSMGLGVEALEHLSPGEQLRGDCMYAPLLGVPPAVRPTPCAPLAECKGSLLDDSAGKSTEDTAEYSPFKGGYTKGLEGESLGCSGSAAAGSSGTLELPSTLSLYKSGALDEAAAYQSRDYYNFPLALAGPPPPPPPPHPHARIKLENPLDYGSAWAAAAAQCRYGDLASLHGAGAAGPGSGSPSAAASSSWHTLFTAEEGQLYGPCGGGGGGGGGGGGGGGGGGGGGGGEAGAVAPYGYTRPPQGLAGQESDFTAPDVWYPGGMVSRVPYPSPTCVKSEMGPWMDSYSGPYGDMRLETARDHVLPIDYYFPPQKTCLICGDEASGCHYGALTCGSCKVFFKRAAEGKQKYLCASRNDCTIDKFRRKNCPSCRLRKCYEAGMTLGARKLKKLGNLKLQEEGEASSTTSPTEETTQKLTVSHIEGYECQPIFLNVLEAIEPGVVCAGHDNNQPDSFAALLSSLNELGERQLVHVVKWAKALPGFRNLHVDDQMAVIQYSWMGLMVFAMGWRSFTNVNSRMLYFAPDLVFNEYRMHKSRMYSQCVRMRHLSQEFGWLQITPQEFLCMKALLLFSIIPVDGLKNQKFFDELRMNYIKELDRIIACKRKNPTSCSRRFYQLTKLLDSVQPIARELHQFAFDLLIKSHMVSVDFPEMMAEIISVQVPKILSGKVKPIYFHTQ
Excerpt: ENZ, enzalutamide; Bic, bicalutamide; OHF, hydroxyflutamide.

[2] = MTT assay (cytotoxicity), LNCaP cells; details: human, LNCaP cells, 72 h
Procedure: (§1) MTT assays: LNCaP, 22Rv1, Du145, H1975, A549, MB231 and MCF-7 cells are maintained in RPMI 1640 supplemented with 10% FBS. Cells were seeded at a density of 6-7×10^3 cells per well in 96-well plates. After overnight incubation, cells in fresh RPMI 1640 supplemented with 10% FBS were exposed to DMSO vehicle control or test compounds at designated concentrations for 72 h. Viable cells were evaluated by MTT assays. Experiments were performed in triplicate and repeated at least twice.

[3] = MTT assay (cytotoxicity), DU145 cells; details: human, DU145 cells
Procedure: as §1

[4] = MTT assay (cytotoxicity), 22Rv1 cells; details: human, 22Rv1 cells, 72 h
Procedure: as §1

IRF3DBD-AR(1-547) = molecular target: T2, IRF3DBD-AR(1-547) (Homo sapiens, UniProt P10275); assay: IRF3DBD-AR(1-547) ISRE-luc reporter assay; details: PC3 cells, 24 h
T2 construct: IRF3-AR(1-547) is the fusion of IRF3 DBD with the AR NTD (1-547); expressed in transfected cells
T2 sequence (P10275 1-547): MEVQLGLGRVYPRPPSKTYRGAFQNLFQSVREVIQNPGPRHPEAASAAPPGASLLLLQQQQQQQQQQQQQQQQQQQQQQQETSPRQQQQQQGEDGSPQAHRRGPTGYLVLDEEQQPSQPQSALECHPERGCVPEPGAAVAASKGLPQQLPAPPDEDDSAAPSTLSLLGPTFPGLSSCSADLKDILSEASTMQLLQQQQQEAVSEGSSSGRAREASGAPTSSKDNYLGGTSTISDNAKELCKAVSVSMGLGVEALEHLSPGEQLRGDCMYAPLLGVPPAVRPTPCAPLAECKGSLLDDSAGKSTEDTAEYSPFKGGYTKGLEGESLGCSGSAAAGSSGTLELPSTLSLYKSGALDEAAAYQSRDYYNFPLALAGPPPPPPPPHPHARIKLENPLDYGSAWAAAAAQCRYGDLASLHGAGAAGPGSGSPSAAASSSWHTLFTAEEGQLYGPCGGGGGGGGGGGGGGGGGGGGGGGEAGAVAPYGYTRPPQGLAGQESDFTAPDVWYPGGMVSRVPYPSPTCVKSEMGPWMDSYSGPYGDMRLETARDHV

full-length IRF3 = molecular target: T3, full-length IRF3 (Homo sapiens, UniProt Q14653); assay: Full-length IRF3 ISRE-luc reporter assay; details: PC3 cells, 24 h
T3 construct: co-transfected with full-length IRF3 or IRF3DBD-AR(1-547) expressing plasmids; expressed in transfected cells
T3 sequence (Q14653 1-427): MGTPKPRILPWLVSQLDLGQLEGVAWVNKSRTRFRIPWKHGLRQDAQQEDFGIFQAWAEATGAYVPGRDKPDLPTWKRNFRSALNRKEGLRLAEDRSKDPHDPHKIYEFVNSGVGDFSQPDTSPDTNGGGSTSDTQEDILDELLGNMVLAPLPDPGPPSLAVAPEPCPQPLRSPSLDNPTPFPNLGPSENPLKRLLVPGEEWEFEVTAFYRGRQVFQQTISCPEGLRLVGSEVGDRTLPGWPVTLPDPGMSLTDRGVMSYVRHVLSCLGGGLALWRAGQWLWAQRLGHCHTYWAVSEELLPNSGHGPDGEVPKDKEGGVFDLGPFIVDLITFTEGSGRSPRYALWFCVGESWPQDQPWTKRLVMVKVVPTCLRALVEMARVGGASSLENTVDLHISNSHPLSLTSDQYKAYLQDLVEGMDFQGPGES
Excerpt: For all of the others, cells were co-transfected with full-length IRF3 or IRF3DBD-AR(1-547) expressing plasmids and with the ISRE-luc reporter and pRL-TK plasmids. […] As IRF3DBD-AR(1-547) contains the DBD of IRF3, ISRE-luc reporter instead of the PSA-luc reporter was used in our assays.
HEK293 cells were co-transfected with IRF3DBD(1-133) or IRF3DBD-AR(1-547) or IRF3DBD-AR(181-547) or full-length IRF3 expressing plasmids and with the ISRE-luc reporter and the Renilla luciferase pRL-TK plasmids.
Here, IRF3-AR(1-547) is the fusion of IRF3 DBD with the AR NTD (1-547). […] The plasmids expressing IRF3-AR(1-547) (A) or wild-type IRF3 (B) or IRF3 DBD (for NT) as well as ISRE-luc and pRL-TK were transiently transfected into PC3 cells. […] Bic, bicalutamide; EPI, EPI-001.

[5] = molecular target: T4, endogenous AR T877A mutant in LNCaP cells (Homo sapiens, UniProt P10275, T878A); assay: PSA-luc reporter assay in LNCaP cells (endogenous AR T877A mutant); details: PSA-luc, 24 h
T4 construct: LNCaP cells, which express endogenous AR T877A mutant; endogenous in cells; host or cells: LNCaP
T4 sequence (P10275 1-920 T878A): T1 sequence (P10275 1-920 T878A)
Procedure: Experiments were in duplicate and repeated three times. […] LNCaP cells in whole medium were exposed to DMSO vehicle control or compounds for 24 h.

SMILES | IC50 at 72 h ([2]; Table 2.3) | IC50 at 72 h ([3]; Table 2.3) | IC50 at 72 h ([4]; Table 2.3) | IC50 at 72 h ([2]; Table 2.4) | IC50 at 72 h ([3]; Table 2.4) | IC50 at 72 h ([4]; Table 2.4) | other results
CC(C)(O)C(=O)Nc1ccc([N+](=O)[O-])c(C(F)(F)F)c1 [hydroxyflutamide, reference compound] | – | – | – | – | – | – | agonism of AR T877A mutant (PSA-luc) [1]: activated
COc1cccc(/C=C/NC(=O)Nc2ccc3c(c2)OCO3)c1 [Compound 431] | 17.3 µM | > 20 µM | > 20 µM | – | – | – | –
O=C(N/C=C/c1ccc2c(c1)OCO2)Nc1ccc([N+](=O)[O-])c(C(F)(F)F)c1 [Compound 444] | – | – | – | 14.6 µM | 14 µM | 17.5 µM | –
O=C(Nc1cccc(Br)c1)Nc1cc(NC(=O)Nc2cccc(C(F)(F)F)c2)cc(C(F)(F)F)c1 [Compound 973] | – | – | – | – | – | – | inhibition of IRF3-AR(1-547)-dependent ISRE-luc reporter activity (IRF3DBD-AR(1-547)): potently inhibit; activity against wild-type IRF3 (ISRE-luc) (full-length IRF3): inactive
O=C(N/C=C/c1cccs1)Nc1ccc([N+](=O)[O-])c(C(F)(F)F)c1 [Compound 419] | – | – | – | 3.2 µM | 6.9 µM | 4.1 µM | –
O=C(N/C=C/c1cccc(C(F)(F)F)c1)Nc1ccc2c(c1)OCO2 [Compound 418] | > 20 µM | > 20 µM | > 20 µM | – | – | – | –
CC(C)(C)OC(=O)n1cnc(/C=C/NC(=O)Nc2ccc([N+](=O)[O-])c(C(F)(F)F)c2)c1 [Compound 453] | – | – | – | 4 µM | > 20 µM | > 20 µM | –
O=C(N/C=C/c1cc(C(F)(F)F)cc(C(F)(F)F)c1)Nc1cnc2ccccc2c1 [Compound 523] | 8 µM | 10 µM | 8.4 µM | – | – | – | –
O=C(N/C=C/c1cc(C(F)(F)F)cc(C(F)(F)F)c1)Nc1ccc2ncccc2c1 [Compound 515] | > 10 µM | > 10 µM | > 10 µM | – | – | – | –
O=C(N/C=C/c1cccc(C(F)(F)F)c1)NCc1ccc([N+](=O)[O-])cc1 [Compound 447] | – | – | – | 7.5 µM | 8 µM | 7.5 µM | effect of increasing DHT from 1 nM to 10 nM on inhibitory activity in LNCaP cells [5]: not competed out
O=C(N/C=C/c1cccc(C(F)(F)F)c1)Nc1ccc2[nH]ccc2c1 [Compound 520] | 6.5 µM | > 10 µM | > 10 µM | – | – | – | –
